Source: patent publication US20210360915A1, “CRYOPRESERVING COMPOSITIONS” (UNIVERSITY OF WARWICK, priority 2018, published 2021)

How the values were obtained:
β-galactosidase (β-Gal) = assay: β-Gal activity recovery after frozen storage (ONPG assay); format: biochemical, bacterial; conditions: frozen at −20° C. for 3 days, thawed at 20° C.; PEG, PVP, Trehalose, HES 100 mg·mL^−1, PVA 1 mg·mL^−1
Description: Samples were made in triplicate at the appropriate concentrations and frozen in 1.5 mL tubes by directly placing in a freezer either at −20° C. or −80° C. The samples were then held at this temperature for the indicated time period and then thawed at 20° C.
Absorbance was measured at 420 nm. All other methods are in the supporting information.
Absorbance was measured at 420 nm.
Activity was tested after thawing at 20° C. (FIG. 6B).

β-Gal = β-Gal (Escherichia coli, UniProt P00722); conditions: 1 hour incubation without freeze/thaw
Description: β-Gal activity was determined by a colorimetric assay involving the use of ONPG. Briefly aliquots of 30 μL of 4 mg·mL-1 ONPG were added to wells of a 96 well plate containing 50 μL of 20 μg·mL^−1 B-Gal solution. This was then incubated at room temperature for 5 minutes and quenched by addition of 50 μL of 1M Na2CO3 solution. Absorbance was measured at 420 nm.
Since under standard laboratory conditions, proteins are normally stored at −80° C. through long periods, we decided to test the levels of protein activity after long term ultra-low temperature conditions.

E. coli [1] = assay: E. coli colony recovery after 7 freeze/thaw cycles; format: cell-based, Escherichia coli; set-up: Mean colonies recovered, E. coli, Total: dose or concentration left out as unconfirmed
Description: E. coli was added to different cryoprotective formulations and then exposed to 7 freeze/thaw cycles from liquid nitrogen (−196° C.) to room temperature (20° C.) and the number of colony forming units determined by growth on agar plates for 16 hours was recorded (see FIG. 2A). This was chosen to mimic laboratory conditions where stocks are often frozen and thawed during use.
In some down-stream applications, […].
(§1) Bacillus subtilis was chosen as a Gram positive strain and Mycobacterium smegmatis as a Mycobacteria (distinct cell wall compared to other Gram positives) for further analysis. Using the same conditions as for E. coli, the cells were exposed to 7 freeze/thaw cycles and recovered colonies counted, Table 1 and FIG. 4. To enable comparison of the data and to account for the different growth rates of each bacterial strain, the recovered colonies were also normalised to the highest recovery.

M. smegmatis = M. smegmatis colony recovery after 7 freeze/thaw cycles; format: cell-based, Mycobacterium smegmatis
Text: as §1

B. subtilis = B. subtilis colony recovery after 7 freeze/thaw cycles; format: cell-based, Bacillus subtilis
Text: as §1

E. coli [2] = tested on: E. coli
Description: Each component (at the useful cryopreservation concentration) was incubated with E. coli overnight at 4° C. and subsequently the number of colony forming units determined, FIG. 2B.

E. coli [3] = assay: Post-thaw growth profile of E. coli by OD600; format: cell-based, Escherichia coli; conditions: 7 freeze/thaw cycles in liquid nitrogen, then inoculated into LB media
Text: This macromolecular cryoprotection solution using ice-inhibiting polymers is clearly suitable for bacteria storage but there are many parameters which can be varied in this system including the molecular weight of the polymers. To enable a large number of conditions to be screened, the post-thaw growth rate of E. coli was also followed by OD600 (turbidity) measurements, which enable higher-throughput measurements. E. coli were frozen with the indicated formulations, and post-thaw inoculated into LB media and their growth monitored.
The improvement was most significant in the case of larger PEGs.

[4] = concentrations as in table footnote, ± SD
[5] = normalised to the highest recovery

Chain of β-Gal (P00722 2-1024): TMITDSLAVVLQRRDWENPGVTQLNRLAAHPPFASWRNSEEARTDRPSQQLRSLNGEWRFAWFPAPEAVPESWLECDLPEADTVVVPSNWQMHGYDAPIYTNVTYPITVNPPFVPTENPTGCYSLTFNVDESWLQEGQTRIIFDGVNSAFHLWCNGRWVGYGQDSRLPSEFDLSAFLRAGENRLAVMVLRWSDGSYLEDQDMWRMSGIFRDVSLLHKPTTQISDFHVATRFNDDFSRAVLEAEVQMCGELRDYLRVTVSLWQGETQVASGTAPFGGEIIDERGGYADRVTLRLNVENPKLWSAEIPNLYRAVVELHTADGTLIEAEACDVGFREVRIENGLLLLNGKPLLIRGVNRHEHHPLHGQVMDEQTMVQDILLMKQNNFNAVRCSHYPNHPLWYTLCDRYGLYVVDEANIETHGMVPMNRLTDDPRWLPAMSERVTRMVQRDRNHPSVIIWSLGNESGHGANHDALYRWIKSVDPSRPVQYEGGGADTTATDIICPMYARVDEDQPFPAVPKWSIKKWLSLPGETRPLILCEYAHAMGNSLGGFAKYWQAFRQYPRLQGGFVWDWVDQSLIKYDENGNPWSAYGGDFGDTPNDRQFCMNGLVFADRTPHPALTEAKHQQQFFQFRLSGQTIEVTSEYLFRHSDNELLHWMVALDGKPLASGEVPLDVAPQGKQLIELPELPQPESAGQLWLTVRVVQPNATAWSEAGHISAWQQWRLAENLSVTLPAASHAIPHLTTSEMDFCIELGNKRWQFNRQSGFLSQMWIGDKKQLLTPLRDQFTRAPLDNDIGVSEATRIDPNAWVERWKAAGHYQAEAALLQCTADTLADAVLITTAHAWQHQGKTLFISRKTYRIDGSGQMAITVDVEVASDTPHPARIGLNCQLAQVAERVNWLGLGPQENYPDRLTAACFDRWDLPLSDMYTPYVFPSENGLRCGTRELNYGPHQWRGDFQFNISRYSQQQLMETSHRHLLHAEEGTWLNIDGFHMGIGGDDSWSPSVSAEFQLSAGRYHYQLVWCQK

SMILES	protection of β-Gal activity (β-galactosidase (β-Gal))	β-Gal function after incubation with cryoprotectant (β-Gal)	recovered colonies (colony forming units) (E. coli [1]; 7 freeze (−196° C.)/thaw (20° C.) cycles, growth on agar plates for 16 hours, PEG/PVA 100 + 1 mg·mL^−1)	Mean colonies recovered, E. coli, Normalised (E. coli [1]; 7 freeze/thaw cycles, normalised to the highest recovery) [%]	Mean colonies recovered, E. coli, Total (E. coli [1]; 7 freeze/thaw cycles, ± SD)	Mean colonies recovered, M. smegmatis, Total (M. smegmatis; [4])	Mean colonies recovered, M. smegmatis, Normalised (M. smegmatis; [5]) [%]	Mean colonies recovered, B. subtilis, Total (B. subtilis; [4])	Mean colonies recovered, B. subtilis, Normalised (B. subtilis; [5]) [%]	recovered colonies after overnight incubation with cryoprotectant (toxicity) (E. coli [2])	post-thaw growth rate (OD600) (E. coli [3])
OC[C@H]1O[C@H](O[C@H]2O[C@H](CO)[C@@H](O)[C@H](O)[C@H]2O)[C@H](O)[C@@H](O)[C@@H]1O [trehalose]	protected β-Gal activity	some negative effects on protein function									
OCC(O)CO [25% Glycerol, glycerol]			15	22	15 ± 2.8	30 ± 6.0	88	93 ± 18.9	35	significant reduction in recovered colonies	essentially identical growth rates
